The target in the assay is T1, IRAK4 (Homo sapiens, UniProt Q9NWZ3).
T1 sequence (Q9NWZ3 1-460): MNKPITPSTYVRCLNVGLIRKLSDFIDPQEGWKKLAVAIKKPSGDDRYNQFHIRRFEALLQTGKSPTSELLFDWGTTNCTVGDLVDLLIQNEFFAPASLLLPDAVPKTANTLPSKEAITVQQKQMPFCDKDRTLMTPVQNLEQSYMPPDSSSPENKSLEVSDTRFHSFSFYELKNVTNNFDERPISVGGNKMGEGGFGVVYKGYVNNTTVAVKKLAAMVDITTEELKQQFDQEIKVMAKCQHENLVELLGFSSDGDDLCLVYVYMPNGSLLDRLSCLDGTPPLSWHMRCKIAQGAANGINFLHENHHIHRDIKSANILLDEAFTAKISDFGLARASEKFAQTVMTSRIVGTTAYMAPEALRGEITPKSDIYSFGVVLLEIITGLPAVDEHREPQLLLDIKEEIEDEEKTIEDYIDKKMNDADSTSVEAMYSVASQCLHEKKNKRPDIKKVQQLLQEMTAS
The assay can be described thus: OCI-LY-10 degradation assay (western blot, % IRAK4 degraded after 4 hours). The assay is classed as cell-based. Details: endogenous in cells; host or cells: OCI-LY10. The note with it: OCI-LY10 cells; for OCI-LY10 % IRAK4 Degradation (0.01 uM) / OCI-LY10 % IRAK4 Degradation (0.1 uM) / OCI-LY10 % IRAK4 Degradation (1 uM): 4 hours; for OCI-LY10 % IRAK4 Degradation (0.01 uM): 0.01 uM compound; for OCI-LY10 % IRAK4 Degradation (0.1 uM): 0.1 uM compound; for OCI-LY10 % IRAK4 Degradation (1 uM): 1 uM compound; for OCI-LY10 % IRAK4 Degradation: IRAK4 degraded after 4 hours, western blot. As for the experimental part:
Compounds were reconstituted in DMSO to make stock solutions at concentration of 60 mM. THP-1 and OCI-LY10 cells were maintained in RPMI-1640 medium containing 10% FBS, 0.5 μM 2-ME or 20% FBS, 55 μM 2-ME, and 1% L-Glutamine respectively.
Cells were seeded into 6-well plates with 5e6 cells per well. 200 μL of diluted compounds were added to cells to the final concentration of 0.003-10 μM. After 4 or 24 hour-incubation at 37° C., cells were collected into 2 mL Eppendorf tubes and centrifuged at 1,000 rpm for 5 min. The cell pellets were washed with 1×DPBS once and resuspended in 60 μL lysis buffer. The cells were lysed on ice for 10 min, then centrifuged at 14,000 rpm for 10 min at 4° C. and the supernatants were collected for western blots. For THP-1 cells, the lysis buffer contained 40 mM pH 7.4 HEPES, 140 mM NaCl, 2.5 mM EDTA, 1% NP-40, 0.1% SDS, and protease inhibitor cocktail (Roche, Cat. No. 05892791001). For OCI-LY10 cells, RIPAbuffer (Thermo Fisher, 89900) with Halt Protease and Phosphatase Inhibitor Cocktail (Thermo Fisher, 78446) was applied.
The protein concentration of cell lysates was quantified with Pierce™ BCA Protein Assay Kit (Pierce, 23227). Albumin standards at different concentrations were prepared, involving 2,000 ug/mL, 1,500 ug/mL, 1,000 ug/mL, 750 ug/mL, 500 ug/mL, 250 ug/mL, 125 ug/mL, and 25 ug/mL. BCA working reagents were prepared by mixing BCA reagent A with reagent B in 50:1 ratio. 200 μL of the BCA working reagents were added to 25 μL of BCA standard or cell lysates in microplate, and mixed thoroughly on a plate shaker for 30 seconds. After incubation at 37° C. for 30 min, the absorbance of samples at 562 nm were measured with EnVision Plate Reader.
Protein lysates were prepared in NuPAGE™ LDS sample buffer and NuPAGE™ sample reducing agent, and incubated at 95° C. for 5 min. For western blots, 20-25 μg of total proteins were resolved in 4-12% Bis-Tris gels (Introgen, WG1403A) or 10% Bis-Tris Midi gels (Invitrogen, WG1202BOX) running with 1×MOPS SDS running buffer (Invitrogen, NP0001) or 1×MES SDS running buffer (Invitrogen, NP0002). The proteins were transferred to low fluorescence PVDF membranes using the Trans-Blot Turbo Transfer System. Membranes were then blocked in Odyssey blocking buffer at RT for 1 h followed by primary incubation at 4° C. overnight. The primary antibodies were IRAK1 rabbit monoclonal antibody (CST, #4504S, 1:500), IRAK3 rabbit polyclonal antibody (CST, #4369, 1:500), IRAK4 rabbit polyclonal antibody (CST, #4363S, 1:1,000), MyD88 rabbit monoclonal antibody (Abcam, Ab133739, 1:2,000), j3-actin mouse monoclonal antibody (Sigma, A5441, 10,000), and Gapdh mouse monoclonal antibody (Millipore, MAB374, 1:5,000). Membranes were washed three times with 1×TBST, and then incubated with IR Dye 800 CW Goat anti-rabbit (Licor, #926-32211) and IR Dye 700 CW Goat anti-mouse (Licor, #926-68070) secondary antibodies in 1:10,000 dilution at RT for 1 h. The western blot images were obtained using Odyssey Imaging System.
OCI-LY-10 results at 4 hours. The letter codes indicate the percentage of IRAK4 degraded after 4 hours: A (>50% degradation), B (>20-50% degradation) and C (<20% degradation)
OCI-LY-10 results at 4 hours. The letter codes for % IRAK4 degradation indicate the percentage of IRAK4 degraded after 4 hours across three different concentrations: A (>50% degradation), B (>20-50% degradation) and C (<20% degradation).

With `NC(=O)c1nn(-c2ccc(C(=O)NCCOCCCc3cccc4c3C(=O)N(C3CCC(=O)NC3=O)C4=O)cc2)cc1NC(=O)c1coc(-c2ccnc(NCC(F)(F)F)c2)n1` (centres unmarked) [I-234], the “OCI-LY10 % IRAK4 Degradation (0.01 uM)” value is “C (<20% degradation)”, the “OCI-LY10 % IRAK4 Degradation (0.1 uM)” value is “B (>20-50% degradation)” and the “OCI-LY10 % IRAK4 Degradation (1 uM)” value is “B (>20-50% degradation)”.
As for `O=C1CCC(N2C(=O)c3ccc(CCCN4CCC(n5cc(NC(=O)c6coc(-c7ccnc(NCC8CC8)c7)n6)c(C(F)F)n5)CC4)cc3C2=O)C(=O)N1` (centres unmarked) [I-264], the “OCI-LY10 % IRAK4 Degradation (0.01 uM)” value is “C (<20% degradation)”, the “OCI-LY10 % IRAK4 Degradation (0.1 uM)” value is on record as “C (<20% degradation)” and the “OCI-LY10 % IRAK4 Degradation (1 uM)” value is listed as “C (<20% degradation)”.
Turning to `O=C1CCC(N2C(=O)c3ccc(CCCNCc4ccc(-n5cc(NC(=O)c6coc(-c7ccncc7)n6)c(C(F)F)n5)cc4)cc3C2=O)C(=O)N1` (centres unmarked) [I-380], the “OCI-LY10 % IRAK4 Degradation (0.01 uM)” value is listed as “C (<20% degradation)”, the “OCI-LY10 % IRAK4 Degradation (0.1 uM)” value is given as “C (<20% degradation)” and the “OCI-LY10 % IRAK4 Degradation (1 uM)” value is on record as “C (<20% degradation)”.
`N#Cc1cnc2c(cnn2-c2cc(NC3CC3)c(C(=O)NCC(F)COCCNc3cccc4c3C(=O)N(C3CCC(=O)NC3=O)C4=O)cn2)c1` (centres unmarked) [I-82]: the “OCI-LY10 % IRAK4 Degradation” value is on record as “C (<20% degradation)”.
Consider `O=C1CCC(N2C(=O)c3ccc(OCCc4cnnn4CCOCCOCCNCc4ccc(-n5cc(NC(=O)c6coc(-c7ccnc(NCC8CC8)c7)n6)c(C(F)F)n5)cc4)cc3C2=O)C(=O)N1` (centres unmarked) [I-347], for which the “OCI-LY10 % IRAK4 Degradation (0.01 uM)” value is listed as “C (<20% degradation)”, the “OCI-LY10 % IRAK4 Degradation (0.1 uM)” value is reported as “A (>50% degradation)” and the “OCI-LY10 % IRAK4 Degradation (1 uM)” value is “A (>50% degradation)”.
Take `NC(=O)c1nn(-c2ccc(COCC3CCCCN3CCOCCNc3cccc4c3C(=O)N(C3CCC(=O)NC3=O)C4=O)cc2)cc1NC(=O)c1coc(-c2ccnc(NCC(F)(F)F)c2)n1` (centres unmarked) [I-303, N-[3-carbamoyl-1-[4-[[1-[2-[2-[[2-(2,6-dioxo-3-piperidyl)-1,3-dioxo-isoindolin-4-yl]amino]ethoxy]ethyl]-2-piperidyl]methoxymethyl]phenyl]pyrazol-4-yl]-2-[2-(2,2,2-trifluoroethylamino)-4-pyridyl]oxazole-4-carboxamide]: the “OCI-LY10 % IRAK4 Degradation (0.01 uM)” value was “B (>20-50% degradation)”, the “OCI-LY10 % IRAK4 Degradation (0.1 uM)” value is “A (>50% degradation)” and the “OCI-LY10 % IRAK4 Degradation (1 uM)” value is “A (>50% degradation)”.
As to `CC(C)(OCCOCCOCCOCCOCCNc1cccc2c1C(=O)N(C1CCC(=O)NC1=O)C2=O)C(F)CNC(=O)c1cnc(Nc2ccc3ncsc3c2)cc1NC1CC1` (centres unmarked) [I-68], the “OCI-LY10 % IRAK4 Degradation” value was “C (<20% degradation)”.
`NC(=O)c1nn(CCNCCOCCOCCNc2cccc3c2C(=O)N(C2CCC(=O)NC2=O)C3=O)cc1NC(=O)c1coc(-c2ccnc(NCC3CC3)c2)n1` (centres unmarked) [I-326]: the “OCI-LY10 % IRAK4 Degradation (0.01 uM)” value is “B (>20-50% degradation)”, the “OCI-LY10 % IRAK4 Degradation (0.1 uM)” value is reported as “C (<20% degradation)” and the “OCI-LY10 % IRAK4 Degradation (1 uM)” value was “C (<20% degradation)”.
Consider `O=C1CCC(N2C(=O)c3ccc(CCCNC(=O)c4ccc(-n5cc(NC(=O)c6coc(-c7ccncc7)n6)c(C(F)F)n5)cc4)cc3C2=O)C(=O)N1` (centres unmarked) [I-260], for which the “OCI-LY10 % IRAK4 Degradation (0.01 uM)” value is listed as “C (<20% degradation)”, the “OCI-LY10 % IRAK4 Degradation (0.1 uM)” value is “C (<20% degradation)” and the “OCI-LY10 % IRAK4 Degradation (1 uM)” value was “C (<20% degradation)”.
For the molecule `O=C(COc1cccc2c1C(=O)N(C1CCC(=O)NC1=O)C2=O)NCCCCNC(=O)[C@H]1CC[C@H](NC(=O)c2cnc(Nc3ccc4cnccc4n3)cc2NC2CC2)CC1` (some centres unmarked) [I-9], the “OCI-LY10 % IRAK4 Degradation” value was “C (<20% degradation)”.
On to `O=C1CCC(N2C(=O)c3cccc(NCCOCCOCCNC(=O)[C@H]4C[C@H](NC(=O)c5cnc(Nc6ccc7cnccc7n6)cc5NC5CC5)C4)c3C2=O)C(=O)N1` (some centres unmarked) [I-26, 6-((1,6-naphthyridin-2-yl)amino)-4-(cyclopropylamino)-N-((1r,3r)-3-((2-(2-(2-((2-(2,6-dioxopiperidin-3-yl)-1,3-dioxoisoindolin-4-yl)amino)ethoxy)ethoxy)ethyl)carbamoyl)cyclobutyl)nicotinamide], for which the “OCI-LY10 % IRAK4 Degradation” value is recorded as “C (<20% degradation)”.
With `NC(=O)c1nn(-c2ccc(CNCCCCCCCCCc3cccc4c3C(=O)N(C3CCC(=O)NC3=O)C4=O)cc2)cc1NC(=O)c1coc(-c2ccnc(NCC3CC3)c2)n1` (centres unmarked) [I-317], the “OCI-LY10 % IRAK4 Degradation (0.01 uM)” value is listed as “C (<20% degradation)”, the “OCI-LY10 % IRAK4 Degradation (0.1 uM)” value was “C (<20% degradation)” and the “OCI-LY10 % IRAK4 Degradation (1 uM)” value is “B (>20-50% degradation)”.
Take `CC(C)(OCCOCCOCCNc1cccc2c1C(=O)N(C1CCC(=O)NC1=O)C2=O)C(F)CNC(=O)c1cnc(Nc2ccc3cnccc3n2)cc1NC1CC1` (centres unmarked) [I-56]: the “OCI-LY10 % IRAK4 Degradation” value is listed as “C (<20% degradation)”.
`Cn1c(=O)n(C2CCC(=O)NC2=O)c2ccc(CCCOCCOCCNCc3ccc(-n4cc(NC(=O)c5coc(-c6ccnc(NCC7CC7)c6)n5)c(C(F)F)n4)cc3)cc21` (centres unmarked) [I-331]: the “OCI-LY10 % IRAK4 Degradation (0.01 uM)” value is “C (<20% degradation)”, the “OCI-LY10 % IRAK4 Degradation (0.1 uM)” value is reported as “B (>20-50% degradation)” and the “OCI-LY10 % IRAK4 Degradation (1 uM)” value is “C (<20% degradation)”.
As for `O=C1CCC(N2C(=O)c3cccc(CCCNCCCCCNC(=O)c4ccc(-n5cc(NC(=O)c6coc(-c7ccnc(NCC8CC8)c7)n6)c(C(F)(F)F)n5)cc4)c3C2=O)C(=O)N1` (centres unmarked) [I-221], the “OCI-LY10 % IRAK4 Degradation (0.01 uM)” value is given as “B (>20-50% degradation)”, the “OCI-LY10 % IRAK4 Degradation (0.1 uM)” value was “B (>20-50% degradation)” and the “OCI-LY10 % IRAK4 Degradation (1 uM)” value was “A (>50% degradation)”.
For the molecule `CN(CCCc1ccc2c(c1)C(=O)N(C1CCC(=O)NC1=O)C2=O)Cc1ccc(-n2cc(NC(=O)c3coc(-c4ccnc(NCC(F)(F)F)c4)n3)c(C(F)F)n2)cc1` (centres unmarked) [I-374], the “OCI-LY10 % IRAK4 Degradation (0.01 uM)” value is “C (<20% degradation)”, the “OCI-LY10 % IRAK4 Degradation (0.1 uM)” value is “B (>20-50% degradation)” and the “OCI-LY10 % IRAK4 Degradation (1 uM)” value was “B (>20-50% degradation)”.
With `N#Cc1cnc2c(cnn2-c2cc(NC3CC3)c(C(=O)N[C@H]3CC[C@H](COCCOCCOCCOCCOCCNc4cccc5c4C(=O)N(C4CCC(=O)NC4=O)C5=O)CC3)cn2)c1` (some centres unmarked) [I-33], the “OCI-LY10 % IRAK4 Degradation” value is “C (<20% degradation)”.
Still for that read-out and setting: under `CC(C)(OCCOCCOCCNc1cccc2c1C(=O)N(C1CCC(=O)NC1=O)C2=O)C(F)CNC(=O)c1cnc(Nc2ncc(C#N)cc2F)cc1NC1CC1` (centres unmarked) [I-67] stands “C (<20% degradation)”; under `N#Cc1cnc2c(cnn2-c2cc(NC3CC3)c(C(=O)N[C@H]3CC[C@H](COCCOCCOCCOCCNC(=O)COc4cccc5c4C(=O)N(C4CCC(=O)NC4=O)C5=O)CC3)cn2)c1` (some centres unmarked) [I-18], “B (>20-50% degradation)”.

The record behind these values is US10874743B2, “IRAK degraders and uses thereof” (Kymera Therapeutics, Inc., priority 2017, dated 2020).
